# In patent publication US9029337B2, “Modulation of factor 7 expression” (Isis Pharmaceuticals, Inc., priority 2007, dated 2015):
# Strand notation (5' to 3'): a small letter for the sugar, then the base; units joined by * are phosphorothioate-linked, units joined directly phosphodiester-linked; [ ] holds rarer units or linkages, { } end groups; capitals alone tell only the bases. e = 2'-O-(2-methoxyethyl) (MOE); [5mC] = 5-methylcytosine; d = 2'-deoxy (DNA)
# Tested on: human Factor 7 mRNA
# Assay: Antisense inhibition of human Factor 7 mRNA in HepB3 cells, 50 nM antisense oligonucleotide, lipofectin
# Type: cell-based
# Conditions: Table 1, 50 nM, lipofectin, approximately 24 hours, relative to untreated control cells
# In short: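 Percent inhibition of Factor 7 mRNA, relative to untreated control, comes from real-time RT-PCR with RIBOGREEN normalization, using primer probe set RTS 2927 in some runs. RNA was taken roughly 24 h after lipofectin delivery of 50 nM oligonucleotide into HepB3 cells.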
row,Substance,% Inhibition [%]
1,407639 (antisense eT*eT*eT*eG*e[5mC]*dA*dG*d[5mC]*d[5mC]*dA*d[5mC]*dT*d[5mC]*dG*dA*eT*eG*eT*eA*e[5mC]) [compound 407639],76
2,407897 (antisense eG*e[5mC]*eT*eT*eG*dG*dT*dG*d[5mC]*d[5mC]*d[5mC]*dG*dT*dG*dT*eG*eG*eT*e[5mC]*eA) [compound 407897],77
3,407640 (antisense eG*e[5mC]*eA*eT*eG*dA*dG*d[5mC]*dT*dT*dT*dT*dG*d[5mC]*dA*eG*e[5mC]*e[5mC]*eA*e[5mC]) [compound 407640],79
4,407907 (antisense eA*eA*eT*eG*eA*dG*dA*dA*dG*d[5mC]*dG*d[5mC]*dA*d[5mC]*dG*eA*eA*eG*eG*e[5mC]) [compound 407907],35
5,407916 (antisense eG*eT*eG*eG*e[5mC]*d[5mC]*d[5mC]*dA*d[5mC]*dG*dG*dT*dT*dG*d[5mC]*eG*e[5mC]*eA*eG*e[5mC]) [compound 407916],53
6,407599 (antisense e[5mC]*e[5mC]*eT*eG*eG*dG*dA*dG*dA*d[5mC]*d[5mC]*dA*dT*dG*dA*eT*eG*eA*eA*eA) [compound 407599],73
7,407642 (antisense e[5mC]*eA*eG*e[5mC]*eA*dG*d[5mC]*d[5mC]*dT*dG*dA*dG*dG*d[5mC]*d[5mC]*eA*eG*e[5mC]*eA*eG) [compound 407642],78
8,407901 (antisense eT*eG*eG*eT*eG*dT*dT*dG*dA*dT*d[5mC]*dA*dG*dG*dG*eT*e[5mC]*e[5mC]*e[5mC]*e[5mC]) [compound 407901],89
9,407649 (antisense eG*eA*eG*eG*eG*dT*dT*d[5mC]*dA*dT*dT*dT*d[5mC]*dA*dG*eT*eG*eA*eT*eG) [compound 407649],24
10,407887 (antisense e[5mC]*e[5mC]*eA*eG*eG*d[5mC]*dA*dG*d[5mC]*d[5mC]*d[5mC]*dT*dG*dA*dA*eG*e[5mC]*e[5mC]*e[5mC]*eA) [compound 407887],78
11,407902 (antisense e[5mC]*eA*e[5mC]*e[5mC]*e[5mC]*dA*dG*dA*dT*dG*dG*dT*dG*dT*dT*eG*eA*eT*e[5mC]*eA) [compound 407902],86
12,407646 (antisense eG*eG*eT*eG*eA*dT*dG*d[5mC]*dT*dT*d[5mC]*dT*dG*dA*dA*eT*eT*eG*eT*e[5mC]) [compound 407646],81

# Same assay, conditions: Table 6, 50 nM, lipofectin, approximately 24 hours
row,Substance,% Inhibition [%]
1,422126 (antisense eA*e[5mC]*eT*eG*eA*dG*d[5mC]*dG*d[5mC]*dG*dG*dA*dA*dG*dA*eA*eG*eG*eG*eA) [compound 422126],22
2,422120 (antisense e[5mC]*eG*e[5mC]*eG*eG*dA*dA*dG*dA*dA*dG*dG*dG*dA*d[5mC]*eG*eG*eA*eA*eG) [compound 422120],40
3,422274 (antisense eT*eT*dA*d[5mC]*dT*dG*dA*dG*d[5mC]*dG*d[5mC]*dG*dG*dA*dA*eG*eA*eA*eG*eG) [compound 422274],24
4,422190 (antisense eG*e[5mC]*eG*d[5mC]*dG*dG*dA*dA*dG*dA*dA*dG*dG*dG*dA*d[5mC]*dG*eG*eA*eA) [compound 422190],12

# Same assay, conditions: gapmers targeted to nucleobases 4868 to 4899 of SEQ ID NO: 1, Table 8
row,Substance,% Inhibition of human Factor 7 mRNA levels [%]
1,422139 (antisense eT*eT*e[5mC]*eT*eG*d[5mC]*dA*dG*dG*dA*dG*d[5mC]*dG*dG*d[5mC]*e[5mC]*eT*eA*eA*eA) [compound 422139],66
2,422291 (antisense eT*eT*d[5mC]*dT*dG*d[5mC]*dA*dG*dG*dA*dG*d[5mC]*dG*dG*d[5mC]*e[5mC]*eT*eA*eA*eA) [compound 422291],53
3,416509 (antisense eA*eG*eG*eA*eG*d[5mC]*d[5mC]*d[5mC]*dG*dA*dG*dT*dT*d[5mC]*dT*eG*e[5mC]*eA*eG*eG) [compound 416509],60
4,422147 (antisense eG*eA*eG*e[5mC]*e[5mC]*d[5mC]*dG*dA*dG*dT*dT*d[5mC]*dT*dG*d[5mC]*eA*eG*eG*eA*eG) [compound 422147],64

# Same assay, conditions: lipofectin, 50 nM antisense oligonucleotide, approximately 24 hours, Factor 7 mRNA by real-time RT-PCR (RTS 2927), relative to untreated control
row,Substance,% Inhibition [%]
1,416484 (antisense eT*eA*e[5mC]*eA*eG*d[5mC]*d[5mC]*dT*d[5mC]*dA*dA*dA*d[5mC]*dA*dT*e[5mC]*eT*eA*eT*e[5mC]) [compound 416484],0
2,416442 (antisense eA*eG*e[5mC]*eA*eG*dA*dT*dA*dT*dA*dG*dG*dA*d[5mC]*dT*eG*eG*eA*eG*e[5mC]) [compound 416442],57
3,416543 (antisense eT*e[5mC]*e[5mC]*eT*eG*d[5mC]*dG*dA*dG*dT*dG*dG*dG*dA*dG*eT*eT*eG*eG*eA) [compound 416543],0
4,416509 (antisense eA*eG*eG*eA*eG*d[5mC]*d[5mC]*d[5mC]*dG*dA*dG*dT*dT*d[5mC]*dT*eG*e[5mC]*eA*eG*eG) [compound 416509],56
5,416468 (antisense eT*eG*eG*eG*eA*dG*dA*d[5mC]*d[5mC]*d[5mC]*dT*dG*dG*dT*dG*eT*eA*e[5mC]*eA*e[5mC]) [compound 416468],46
6,416532 (antisense eG*eG*eA*e[5mC]*e[5mC]*d[5mC]*dA*dG*dA*dT*dG*dA*d[5mC]*d[5mC]*dA*eG*e[5mC]*eA*eG*eG) [compound 416532],12
7,416529 (antisense eG*eG*eG*e[5mC]*eT*dG*dA*dG*dA*d[5mC]*dT*dG*dA*dG*dG*eT*e[5mC]*eA*eG*e[5mC]) [compound 416529],18
8,416524 (antisense eT*eA*eA*eT*eT*dT*dA*dA*dT*dA*dT*dT*d[5mC]*dA*dG*eA*eT*eG*eG*eT) [compound 416524],0
9,416461 (antisense eG*eA*eA*eG*e[5mC]*dG*d[5mC]*dA*d[5mC]*dG*dA*dA*dG*dG*d[5mC]*e[5mC]*eA*eG*e[5mC]*eG) [compound 416461],43
10,416435 (antisense e[5mC]*e[5mC]*e[5mC]*eA*eT*d[5mC]*dA*d[5mC]*dT*dG*dT*dA*dA*dG*dA*eA*eA*eT*e[5mC]*e[5mC]) [compound 416435],3
11,416545 (antisense eA*eG*eA*eA*eA*d[5mC]*dA*dT*d[5mC]*d[5mC]*d[5mC]*dA*dT*dT*dT*eT*e[5mC]*e[5mC]*e[5mC]*eA) [compound 416545],8
12,416535 (antisense eG*e[5mC]*eA*eG*eG*dA*dT*dG*d[5mC]*dA*d[5mC]*dA*d[5mC]*d[5mC]*dA*eG*eG*eG*e[5mC]*eT) [compound 416535],47
13,416539 (antisense eG*eA*e[5mC]*eA*eG*dA*dG*d[5mC]*d[5mC]*dT*dG*dA*dG*d[5mC]*dT*eT*eG*eG*e[5mC]*eA) [compound 416539],53
14,416561 (antisense eG*eG*eT*eG*eT*dG*dT*dT*d[5mC]*d[5mC]*d[5mC]*dA*dT*dA*dA*eA*eA*e[5mC]*eT*eT) [compound 416561],16
15,416423 (antisense eG*eT*eG*eT*eT*dT*d[5mC]*dT*d[5mC]*d[5mC]*dT*d[5mC]*d[5mC]*dT*dG*eA*eG*eG*e[5mC]*e[5mC]) [compound 416423],51

# Same assay, conditions: oligonucleotides targeted to nucleobases 11830 to 11869 of SEQ ID NO: 1 (Table 9)
row,Substance,% Inhibition (human Factor 7 mRNA levels) [%]
1,422173 (antisense e[5mC]*eT*eG*dG*d[5mC]*dT*dG*dA*dG*dG*dA*dG*dA*d[5mC]*dA*dA*dT*eG*eG*eT) [compound 422173],51
2,422243 (antisense eA*eG*dG*dA*dG*dA*d[5mC]*dA*dA*dT*dG*dG*dT*d[5mC]*dA*eG*eG*eG*e[5mC]*eT) [compound 422243],62
3,422241 (antisense eG*eA*dG*dA*d[5mC]*dA*dA*dT*dG*dG*dT*d[5mC]*dA*dG*dG*eG*e[5mC]*eT*eG*eG) [compound 422241],61
4,422235 (antisense eA*eT*dG*dG*dT*d[5mC]*dA*dG*dG*dG*d[5mC]*dT*dG*dG*dT*eT*eT*eT*eG*eG) [compound 422235],50

# Same assay, conditions: oligonucleotides targeted to nucleobases 13760 to 13789 of SEQ ID NO: 1 (Table 10)
row,Substance,% Inhibition (human Factor 7 mRNA levels) [%]
1,422110 (antisense eA*e[5mC]*e[5mC]*e[5mC]*eG*d[5mC]*d[5mC]*dG*dG*d[5mC]*dT*d[5mC]*dT*dG*d[5mC]*eT*e[5mC]*eA*eT*e[5mC]) [compound 422110],53
2,422181 (antisense eG*e[5mC]*e[5mC]*dA*d[5mC]*d[5mC]*d[5mC]*dG*d[5mC]*d[5mC]*dG*dG*d[5mC]*dT*d[5mC]*dT*dG*e[5mC]*eT*e[5mC]) [compound 422181],66
3,422185 (antisense e[5mC]*eT*eG*d[5mC]*dG*d[5mC]*d[5mC]*dA*d[5mC]*d[5mC]*d[5mC]*dG*d[5mC]*d[5mC]*dG*dG*d[5mC]*eT*e[5mC]*eT) [compound 422185],48
4,422180 (antisense e[5mC]*e[5mC]*eA*d[5mC]*d[5mC]*d[5mC]*dG*d[5mC]*d[5mC]*dG*dG*d[5mC]*dT*d[5mC]*dT*dG*d[5mC]*eT*e[5mC]*eA) [compound 422180],54

# Same assay, conditions: oligonucleotides targeted to nucleobases 14707 to 14732 of SEQ ID NO: 1 (Table 11)
row,Substance,% Inhibition (human Factor 7 mRNA levels) [%]
1,407642 (antisense e[5mC]*eA*eG*e[5mC]*eA*dG*d[5mC]*d[5mC]*dT*dG*dA*dG*dG*d[5mC]*d[5mC]*eA*eG*e[5mC]*eA*eG) [compound 407642],63
2,422279 (antisense eA*eG*d[5mC]*d[5mC]*dT*dG*dA*dG*dG*d[5mC]*d[5mC]*dA*dG*d[5mC]*dA*eG*eA*eT*e[5mC]*eA) [compound 422279],56
3,422206 (antisense e[5mC]*eA*eG*d[5mC]*dA*dG*d[5mC]*d[5mC]*dT*dG*dA*dG*dG*d[5mC]*d[5mC]*dA*dG*e[5mC]*eA*eG) [compound 422206],65

# Same assay, conditions: oligonucleotides targeted to nucleobases 15098 to 15122 of SEQ ID NO: 1 (Table 12)
row,Substance,% Inhibition (human Factor 7 mRNA levels) [%]
1,422211 (antisense eA*e[5mC]*eA*dG*d[5mC]*dA*d[5mC]*dA*d[5mC]*dA*dT*dG*dG*dA*dG*dT*d[5mC]*eA*eG*e[5mC]) [compound 422211],42
